{"source": "patent EP4389886A1", "about": "“LACTASE ENZYMES AND METHOD OF PRODUCING A MILK-BASED PRODUCT” (Novozymes A/S, priority 2022, dated 2024)", "key": {"[1]": {"test_system": "Lactozym® Pure (lactase, Novozymes A/S)", "test": "Lactose turn-over per enzyme molecule in milk at 5°C", "format": "biochemical", "experimental": "(§1) In a preferred embodiment, the enzyme having lactase activity has an initial lactose turn-over of at least 10 per second per enzyme molecule in milk at 5°C. The initial lactose turn-over may be determined, e.g., when 0-10% of the lactose has been hydrolyzed. The skilled person will know how to determine the initial lactose turn-over per enzyme molecule. For example, it can be a direct measurement of lactose using HPLC or indirect using a glucose detection method."}, "[2]": {"test_system": "Saphera® (lactase, Novozymes A/S)", "test": "Lactose turn-over per enzyme molecule in milk at 5°C", "format": "biochemical", "experimental": "as §1"}, "[3]": {"test_system": "experimental Bifidobacterium lactase", "conditions": "substrate lactose, cited from earlier work"}, "[4]": {"conditions": "initial rate (4.7% to 4.23% lactose)"}}, "note": "Where two headings read alike, the source gives them in different places.", "data": [{"smiles": "OC[C@H]1O[C@@H](O[C@H]2[C@H](O)[C@@H](O)C(O)O[C@@H]2CO)[C@H](O)[C@@H](O)[C@H]1O", "note": "(some centres unmarked) [lactose]", "values": [{"measurement": "average lactose turn-over from initial lactose of 4.7% to 0.01% residual lactose", "setting": "[1]", "value": "about 5 sec^-1"}, {"measurement": "average lactose turn-over from initial lactose of 4.7% to 0.1% residual lactose", "setting": "[1]", "value": "about 9 sec^-1"}, {"measurement": "initial lactose turn-over per enzyme molecule", "setting": "[1]; [4]", "value": "about 36 sec^-1"}, {"measurement": "average lactose turn-over from initial lactose of 4.7% to 0.01% residual lactose", "setting": "[2]", "value": "about 18 sec^-1"}, {"measurement": "average lactose turn-over from initial lactose of 4.7% to 0.1% residual lactose", "setting": "[2]", "value": "about 23 sec^-1"}, {"measurement": "initial lactose turn-over per enzyme molecule", "setting": "[2]; [4]", "value": "about 89 sec^-1"}, {"measurement": "Km", "setting": "[3]; at 5°C", "value": 8, "unit": "mM"}, {"measurement": "Km", "setting": "[3]; at 37°C", "value": 13, "unit": "mM"}]}]}
